Results taken from ChEMBL document CHEMBL1133208, “Synthesis and biological properties of new 1beta-methylcarbapenems having tetrazolothioether moiety” (Bioorg Med Chem Lett, 2000).
In brackets after ≈: the same amount, converted by molar mass.

Assays:
Klebsiella aerogenes = experiment: In vitro antibacterial activity against Klebsiella aerogenes 1522E by agar dilution method using Mueller-Hinton; type: functional
Pseudomonas aeruginosa [1] = experiment: In vitro antibacterial activity against Pseudomonas aeruginosa 9027 by agar dilution method using Mueller-Hinton; type: functional
Salmonella typhimurium = experiment: In vitro antibacterial activity against Salmonella Typhimurium by agar dilution method using Mueller-Hinton; type: functional, Salmonella enterica subsp. enterica serovar Typhimurium; conditions: Salmonella enterica
Pseudomonas aeruginosa [2] = experiment: In vitro antibacterial activity against Pseudomonas aeruginosa 1771M by agar dilution method using Mueller-Hinton; type: functional
Staphylococcus aureus [3] = experiment: In vitro antibacterial activity against Staphylococcus aureus SG 511 by agar dilution method using Mueller-Hinton; type: functional
Pseudomonas aeruginosa [4] = experiment: In vitro antibacterial activity against Pseudomonas aeruginosa 1592E by agar dilution method using Mueller-Hinton; type: functional
Enterobacter cloacae = experiment: In vitro antibacterial activity against Enterobacter cloacae 1321E by agar dilution method using Mueller-Hinton; type: functional
Escherichia coli [5] = experiment: In vitro antibacterial activity against Escherichia coli 1507E by agar dilution method using Mueller-Hinton; type: functional
Streptococcus pyogenes = experiment: In vitro antibacterial activity against Streptococcus pyogenes 308A by agar dilution method using Mueller-Hinton; type: functional
Escherichia coli [6] = experiment: In vitro antibacterial activity against Escherichia coli 078 by agar dilution method using Mueller-Hinton; type: functional
Staphylococcus aureus [7] = experiment: In vitro antibacterial activity against Staphylococcus aureus SG 503 by agar dilution method using Mueller-Hinton; type: functional
Staphylococcus aureus [8] = experiment: In vitro antibacterial activity against Staphylococcus aureus SG 285 by agar dilution method using Mueller-Hinton; type: functional
[9] = The area under concentration-time curve(AUC) was determined at 20 mg/kg of compound dose, administered intravenously in rat; type: ADME, organism-based; set-up: dose 20 mg/kg, route intravenous; conditions: in vivo, iv
[10] = Pharmacokinetic studies were carried out to determine the clearance after administration at 20 mg/kg intravenously in rat; type: ADME, organism-based; set-up: dose 20 mg/kg, route intravenous; conditions: in vivo, iv

SMILES | MIC (Klebsiella aerogenes) [µg/mL] | MIC (Pseudomonas aeruginosa [1]) [µg/mL] | MIC (Salmonella typhimurium) [µg/mL] | MIC (Pseudomonas aeruginosa [2]) [µg/mL] | MIC (Staphylococcus aureus [3]) [µg/mL] | MIC (Pseudomonas aeruginosa [4]) [µg/mL] | MIC (Enterobacter cloacae) [µg/mL] | MIC (Escherichia coli [5]) [µg/mL] | MIC (Streptococcus pyogenes) [µg/mL] | MIC (Escherichia coli [6]) [µg/mL] | MIC (Staphylococcus aureus [7]) [µg/mL] | MIC (Staphylococcus aureus [8]) [µg/mL] | AUC [9] [ng·h/mL] | clearance [10] [mL/min/kg]
C[C@@H](O)[C@H]1C(=O)N2C(C(=O)O)=C(S[C@@H]3CN[C@H](CSc4nnnn4-c4ccccc4)C3)[C@H](C)[C@H]12 | 0.391 (≈ 0.778 µM) | 50 (≈ 99.5 µM) | 0.098 (≈ 0.195 µM) | 3.12 (≈ 6.22 µM) | 0.049 (≈ 0.0975 µM) | 50 (≈ 99.5 µM) | 0.098 (≈ 0.195 µM) | 0.391 (≈ 0.778 µM) | 0.007 (≈ 0.0139 µM) | 0.195 (≈ 0.388 µM) | 0.025 (≈ 0.0497 µM) | 0.049 (≈ 0.0975 µM) | – | –
CNC(=O)CCn1nnnc1SC[C@@H]1C[C@H](SC2=C(C(=O)O)N3C(=O)[C@H]([C@@H](C)O)[C@H]3[C@H]2C)CN1 | 0.049 (≈ 0.0958 µM) | 1.56 (≈ 3.05 µM) | 0.049 (≈ 0.0958 µM) | 0.391 (≈ 0.764 µM) | 0.098 (≈ 0.192 µM) | 1.56 (≈ 3.05 µM) | 0.025 (≈ 0.0489 µM) | 0.025 (≈ 0.0489 µM) | 0.007 (≈ 0.0137 µM) | 0.025 (≈ 0.0489 µM) | 0.049 (≈ 0.0958 µM) | 0.098 (≈ 0.192 µM) | – | –
C[C@@H](O)[C@H]1C(=O)N2C(C(=O)O)=C(S[C@@H]3CN[C@H](CSc4nnnn4-c4ccncc4)C3)[C@H](C)[C@H]12 | 0.195 (≈ 0.387 µM) | 50 (≈ 99.3 µM) | 0.049 (≈ 0.0973 µM) | 0.781 (≈ 1.55 µM) | 0.049 (≈ 0.0973 µM) | 50 (≈ 99.3 µM) | 0.098 (≈ 0.195 µM) | 0.195 (≈ 0.387 µM) | 0.007 (≈ 0.0139 µM) | 0.098 (≈ 0.195 µM) | 0.049 (≈ 0.0973 µM) | 0.098 (≈ 0.195 µM) | – | –
CNS(=O)(=O)CCn1nnnc1SC[C@@H]1C[C@H](SC2=C(C(=O)O)N3C(=O)[C@H]([C@@H](C)O)[C@H]3[C@H]2C)CN1 | 0.049 (≈ 0.0895 µM) | 3.12 (≈ 5.71 µM) | 0.049 (≈ 0.0895 µM) | 0.391 (≈ 0.714 µM) | 0.098 (≈ 0.179 µM) | 3.12 (≈ 5.71 µM) | 0.025 (≈ 0.0456 µM) | 0.025 (≈ 0.0456 µM) | 0.007 (≈ 0.0128 µM) | 0.025 (≈ 0.0456 µM) | 0.025 (≈ 0.0456 µM) | 0.098 (≈ 0.179 µM) | – | –
C[C@@H](O)[C@H]1C(=O)N2C(C(=O)O)=C(S[C@@H]3CN[C@H](CSc4nnnn4CCN(C)C)C3)[C@H](C)[C@H]12 | 0.098 (≈ 0.197 µM) | 3.12 (≈ 6.28 µM) | 0.098 (≈ 0.197 µM) | 0.195 (≈ 0.392 µM) | 0.049 (≈ 0.0985 µM) | 3.12 (≈ 6.28 µM) | 0.049 (≈ 0.0985 µM) | 0.049 (≈ 0.0985 µM) | 0.013 (≈ 0.0261 µM) | 0.025 (≈ 0.0502 µM) | 0.025 (≈ 0.0502 µM) | 0.098 (≈ 0.197 µM) | – | –
C[C@@H](O)[C@H]1C(=O)N2C(C(=O)O)=C(S[C@@H]3CN[C@H](CSc4nnnn4CC(=O)N(C)C)C3)[C@H](C)[C@H]12 | 0.098 (≈ 0.192 µM) | 3.12 (≈ 6.11 µM) | 0.049 (≈ 0.0958 µM) | 0.391 (≈ 0.764 µM) | 0.195 (≈ 0.381 µM) | 3.12 (≈ 6.11 µM) | 0.049 (≈ 0.0958 µM) | 0.049 (≈ 0.0958 µM) | 0.013 (≈ 0.0254 µM) | 0.025 (≈ 0.0489 µM) | 0.049 (≈ 0.0958 µM) | 0.195 (≈ 0.381 µM) | – | –
C[C@@H](O)[C@H]1C(=O)N2C(C(=O)[O-])=C(S[C@@H]3CN[C@H](CSc4nnnn4CC[N+](C)(C)C)C3)[C@H](C)[C@H]12 | 0.195 (≈ 0.381 µM) | 0.781 (≈ 1.53 µM) | 0.195 (≈ 0.381 µM) | 0.195 (≈ 0.381 µM) | 0.098 (≈ 0.192 µM) | 0.781 (≈ 1.53 µM) | 0.098 (≈ 0.192 µM) | 0.098 (≈ 0.192 µM) | 0.025 (≈ 0.0489 µM) | 0.049 (≈ 0.0958 µM) | 0.049 (≈ 0.0958 µM) | 0.195 (≈ 0.381 µM) | – | –
CNC(=O)Cn1nnnc1SC[C@@H]1C[C@H](SC2=C(C(=O)O)N3C(=O)[C@H]([C@@H](C)O)[C@H]3[C@H]2C)CN1 | 0.098 (≈ 0.197 µM) | 1.56 (≈ 3.14 µM) | 0.098 (≈ 0.197 µM) | 0.391 (≈ 0.786 µM) | 0.195 (≈ 0.392 µM) | 1.56 (≈ 3.14 µM) | 0.049 (≈ 0.0985 µM) | 0.049 (≈ 0.0985 µM) | 0.013 (≈ 0.0261 µM) | 0.025 (≈ 0.0502 µM) | 0.098 (≈ 0.197 µM) | 0.195 (≈ 0.392 µM) | – | –
C[C@@H](O)[C@H]1C(=O)N2C(C(=O)O)=C(SCCNC=N)C[C@H]12 [IMIPENEM ANHYDROUS] | 0.391 (≈ 1.31 µM) | 0.781 (≈ 2.61 µM) | 0.781 (≈ 2.61 µM) | 0.195 (≈ 0.651 µM) | 0.025 (≈ 0.0835 µM) | 1.56 (≈ 5.22 µM) | 0.195 (≈ 0.651 µM) | 0.195 (≈ 0.651 µM) | 0.007 (≈ 0.0234 µM) | 0.098 (≈ 0.327 µM) | 0.013 (≈ 0.0434 µM) | 0.025 (≈ 0.0835 µM) | 5500 | 61.5
C[C@@H](O)[C@H]1C(=O)N2C(C(=O)O)=C(S[C@@H]3CN[C@H](C(=O)N(C)C)C3)[C@H](C)[C@H]12 [MEROPENEM] | 0.049 (≈ 0.128 µM) | 0.195 (≈ 0.509 µM) | 0.049 (≈ 0.128 µM) | 0.049 (≈ 0.128 µM) | 0.195 (≈ 0.509 µM) | 0.195 (≈ 0.509 µM) | 0.025 (≈ 0.0652 µM) | 0.025 (≈ 0.0652 µM) | 0.013 (≈ 0.0339 µM) | 0.025 (≈ 0.0652 µM) | 0.098 (≈ 0.256 µM) | 0.195 (≈ 0.509 µM) | – | –

More lines, in order of falling MIC (Klebsiella aerogenes), values ahead:

MIC (Klebsiella aerogenes) [µg/mL] | MIC (Pseudomonas aeruginosa [1]) [µg/mL] | MIC (Salmonella typhimurium) [µg/mL] | MIC (Pseudomonas aeruginosa [2]) [µg/mL] | MIC (Staphylococcus aureus [3]) [µg/mL] | MIC (Pseudomonas aeruginosa [4]) [µg/mL] | MIC (Enterobacter cloacae) [µg/mL] | MIC (Escherichia coli [5]) [µg/mL] | MIC (Streptococcus pyogenes) [µg/mL] | MIC (Escherichia coli [6]) [µg/mL] | MIC (Staphylococcus aureus [7]) [µg/mL] | MIC (Staphylococcus aureus [8]) [µg/mL] | SMILES | AUC [9] [ng·h/mL] | clearance [10] [mL/min/kg]
0.049 (≈ 0.0872 µM) | 6.25 (≈ 11.1 µM) | 0.049 (≈ 0.0872 µM) | 0.391 (≈ 0.696 µM) | 0.098 (≈ 0.174 µM) | 12.5 (≈ 22.3 µM) | 0.025 (≈ 0.0445 µM) | 0.025 (≈ 0.0445 µM) | 0.007 (≈ 0.0125 µM) | 0.025 (≈ 0.0445 µM) | 0.025 (≈ 0.0445 µM) | 0.098 (≈ 0.174 µM) | C[C@@H](O)[C@H]1C(=O)N2C(C(=O)O)=C(S[C@@H]3CN[C@H](CSc4nnnn4CCS(=O)(=O)N(C)C)C3)[C@H](C)[C@H]12 | – | –
0.049 (≈ 0.104 µM) | 1.56 (≈ 3.32 µM) | 0.049 (≈ 0.104 µM) | 0.195 (≈ 0.414 µM) | 0.098 (≈ 0.208 µM) | 1.56 (≈ 3.32 µM) | 0.049 (≈ 0.104 µM) | 0.025 (≈ 0.0531 µM) | 0.007 (≈ 0.0149 µM) | 0.025 (≈ 0.0531 µM) | 0.049 (≈ 0.104 µM) | 0.098 (≈ 0.208 µM) | C[C@@H](O)[C@H]1C(=O)N2C(C(=O)O)=C(S[C@@H]3CN[C@H](CSc4nnnn4CCO)C3)[C@H](C)[C@H]12 | – | –
0.049 (≈ 0.0985 µM) | 1.56 (≈ 3.14 µM) | 0.049 (≈ 0.0985 µM) | 0.195 (≈ 0.392 µM) | 0.098 (≈ 0.197 µM) | 0.781 (≈ 1.57 µM) | 0.025 (≈ 0.0502 µM) | 0.025 (≈ 0.0502 µM) | 0.013 (≈ 0.0261 µM) | 0.025 (≈ 0.0502 µM) | 0.025 (≈ 0.0502 µM) | 0.098 (≈ 0.197 µM) | C[C@@H](O)[C@H]1C(=O)N2C(C(=O)O)=C(S[C@@H]3CN[C@H](CSc4nnnn4CCC(N)=O)C3)[C@H](C)[C@H]12 | – | –
0.025 (≈ 0.0567 µM) | 0.781 (≈ 1.77 µM) | 0.025 (≈ 0.0567 µM) | 0.195 (≈ 0.443 µM) | 0.025 (≈ 0.0567 µM) | 0.781 (≈ 1.77 µM) | 0.025 (≈ 0.0567 µM) | 0.025 (≈ 0.0567 µM) | 0.004 (≈ 0.00908 µM) | 0.025 (≈ 0.0567 µM) | 0.025 (≈ 0.0567 µM) | 0.049 (≈ 0.111 µM) | C[C@@H](O)[C@H]1C(=O)N2C(C(=O)O)=C(S[C@@H]3CN[C@H](CSc4nnnn4C)C3)[C@H](C)[C@H]12 | 15900 | 21.8
